The supplement of paper PMC10331698
± gives the standard deviation of the averaged measurements.

Experiments:
Assay in all cases: level (log10 ratio to DMSO vehicle control); higher = higher biomarker level / cell amount than vehicle control
Details in all cases: in DMSO
[1] = compound: OCC(F)(F)OC(F)(F)C(F)(F)OC(F)(F)CO [1H,1H,8H,8H-Perfluoro-3,6-dioxaoctane-1,8-diol]
Description: (§1)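 BioMAP Diversity Plus panel of 12 human primary cell co-culture systems (3C, 4H, LPS, SAg, BT, BF4T, BE3C, CASM3C, HDF3CGF, KF3CT, MyoF, Mphg). Compounds were added 1 h before stimulation and left for 24 h (MyoF 48 h; BT 72 h for soluble read-outs or 6 d for IgG). Biomarkers were read by ELISA, cytotoxicity by SRB, PBMC viability and proliferation by Alamar Blue. Each well value was divided by the mean of 8 DMSO control wells on the same plate and log10 transformed; duplicate blinded samples were tested at 4 concentrations.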

[2] = compound: C=CC(=O)OCC(F)(F)C(F)(F)C(F)(F)C(F)(F)C(F)(F)C(F)(F)C(F)(F)F [1H,1H-Perfluorooctyl acrylate]
Description: as §1

[3] = compound: O=C(O)C(F)(F)C(F)(F)OC(F)(F)F [Perfluoro-3-methoxypropanoic acid]
Description: as §1

[4] = compound: O=S(=O)(O)C(F)(F)C(F)(F)C(F)(F)C(F)(F)C(F)(F)C(F)(F)F [Perfluorohexanesulfonic acid]
Description: as §1

[5] = compound: FC(F)(F)C(F)(F)C(F)(F)C(F)(F)C(F)(F)C(F)(F)C(F)(F)C(F)(F)CCS [2-(Perfluorooctyl)ethanthiol]
Description: as §1

[6] = compound: COC(=O)CCC(F)(F)C(F)(F)C(F)(F)C(F)(F)F [Methyl 2H,2H,3H,3H-perfluoroheptanoate]
Description: as §1

[7] = compound: C=CC(F)(F)C(F)(F)C(F)(F)C(F)(F)C(F)(F)C(F)(F)C(F)(F)C(F)(F)C=C [1,8-Divinylperfluorooctane]
Description: as §1

Test System	level (log10) ([1]; 6700 nM)	level (log10) ([1]; 20000 nM)	level (log10) ([1]; 60000 nM)	level (log10) ([2]; 6700 nM)	level (log10) ([2]; 20000 nM)	level (log10) ([2]; 60000 nM)	level (log10) ([3]; 6700 nM)	level (log10) ([3]; 20000 nM)	level (log10) ([3]; 60000 nM)	level (log10) ([4]; 6700 nM)	level (log10) ([4]; 20000 nM)	level (log10) ([4]; 60000 nM)	level (log10) ([5]; 6700 nM)	level (log10) ([5]; 20000 nM)	level (log10) ([6]; 6700 nM)	level (log10) ([6]; 20000 nM)	level (log10) ([6]; 60000 nM)	level (log10) ([7]; 6700 nM)	level (log10) ([7]; 20000 nM)
LPS:IL-1alpha	-0.0135 ± 0.00071	-0.022 ± 0.011	0.0345 ± 0.0092	0.0165 ± 0.018	0.033 ± 0.023	0.042 ± 0.025	-0.025 ± 0.0071	-0.0285 ± 0.0078	0.0005 ± 0.0021	-0.001 ± 0.0085	0.0075 ± 0.029	0.0365 ± 0.026	-0.045 ± 0.0042	-0.012 ± 0.055	-0.0265 ± 0.015	-0.0185 ± 0.018	0.0235 ± 0.016	0.0095 ± 0.019	0.0295 ± 0.012
BF4T:Keratin 8/18	0.004 ± 0.0085	-0.0075 ± 0.018	0.0205 ± 0.00071	0.02 ± 0.0014	0.0005 ± 0.035	-0.0035 ± 0.053	-0.002 ± 0.031	-0.003 ± 0.0085	0.016 ± 0.011	0.007 ± 0.011	0.0075 ± 0.0064	0.026 ± 0.02	-0.0415 ± 0.0064	-0.0615 ± 0.03	0.007 ± 0.033	0.0285 ± 0.033	0.0225 ± 0.011	0.023 ± 0.033	-0.003 ± 0.033
BF4T:SRB	-0.0045 ± 0.013	-0.0065 ± 0.005	-0.0055 ± 0.0021	-0.003	-0.0055 ± 0.011	0.002 ± 0.025	-0.0145 ± 0.0035	-0.0085 ± 0.0021	0.0025 ± 0.022	-0.01 ± 0.0085	-0.0115 ± 0.0078	-0.0005 ± 0.0021	-0.01 ± 0.013	-0.016 ± 0.0014	-0.002 ± 0.0028	0.003 ± 0.0028	-0.003 ± 0.0014	-0.0045 ± 0.0021	-0.0025 ± 0.00071
BT:sIL-6	0.057 ± 0.0099	0.0215 ± 0.021	-0.0445 ± 0.026	-0.088 ± 0.0042	-0.103 ± 0.031	-0.242 ± 0.045	0.004 ± 0.11	0.0285 ± 0.036	-0.0045 ± 0.05	0.046 ± 0.052	0.0105 ± 0.036	-0.056 ± 0.061	0.011 ± 0.042	-0.02 ± 0.041	0.0555 ± 0.035	0.007 ± 0.018	-0.033 ± 0.038	0.039 ± 0.016	0.0415 ± 0.071
3C:HLA-DR	-0.0185 ± 0.012	-0.0095 ± 0.016	0.0005 ± 0.036	0.0085 ± 0.0092	0.0155 ± 0.0035	0.0205 ± 0.019	-0.0095 ± 0.015	-0.043 ± 0.0085	-0.014 ± 0.0028	-0.0015 ± 0.015	-0.0105 ± 0.023	0.0125 ± 0.047	-0.015 ± 0.018	-0.0235 ± 0.0078	-0.026 ± 0.0071	0.03 ± 0.027	0.0085 ± 0.032	-0.0185 ± 0.028	-0.007 ± 0.013
BE3C:CXCL9/MIG	0.0015 ± 0.0064	-0.0025 ± 0.0035	0.0035 ± 0.005	-0.002 ± 0.0085	0.0035 ± 0.016	0.0015 ± 0.0078	0.005 ± 0.0014	0.0095 ± 0.018	0.0105 ± 0.0021	0.0035 ± 0.0092	-0.001 ± 0.0028	-0.007 ± 0.0028	-0.0085 ± 0.011	-0.001 ± 0.011	-0.0025 ± 0.016	-0.007 ± 0.0014	-0.0095 ± 0.00071	-0.001 ± 0.0014	-0.005 ± 0.0028
BF4T:MMP-1	0.0115 ± 0.022	0.013 ± 0.028	0.0135 ± 0.026	0.009 ± 0.021	0.0065 ± 0.0092	0.006 ± 0.0042	0.0025 ± 0.0021	0.008 ± 0.0042	0.0205 ± 0.023	0.0035 ± 0.0021	-0.0025 ± 0.023	0.0255 ± 0.0035	0.003 ± 0.0085	0.01 ± 0.0099	0.0015 ± 0.013	-0.007 ± 0.0028	0.014 ± 0.021	-0.0045 ± 0.005	0.0135 ± 0.035
SAg:CXCL8/IL-8	0.0115 ± 0.022	-0.005	0.014 ± 0.044	-0.0135 ± 0.053	0.001 ± 0.052	0.003 ± 0.024	0.021 ± 0.0028	-0.017 ± 0.034	0.0095 ± 0.04	0.0185 ± 0.012	0.019 ± 0.018	0.107 ± 0.04	-0.0215 ± 0.032	0.027 ± 0.082	-0.007 ± 0.05	-0.0085 ± 0.026	0.0165 ± 0.033	-0.0315 ± 0.013	0.006 ± 0.05
3C:SRB	-0.01 ± 0.0085	-0.0105 ± 0.0021	-0.0255 ± 0.0021	-0.002 ± 0.0099	0.0145 ± 0.011	0.015	0.001 ± 0.0014	0.0005 ± 0.019	-0.004 ± 0.017	-0.011 ± 0.0085	-0.014 ± 0.0014	-0.0425 ± 0.019	0.005 ± 0.0071	-0.013 ± 0.016	0.0125 ± 0.036	0.0085 ± 0.028	-0.004 ± 0.016	0.0135 ± 0.0021	0.027 ± 0.0042
SAg:CD62E/E-Selectin	-0.0135 ± 0.0064	-0.0185 ± 0.0064	0.0125 ± 0.044	-0.0035 ± 0.0064	-0.036 ± 0.0042	-0.0335 ± 0.016	0.004 ± 0.0099	-0.01 ± 0.018	-0.016 ± 0.018	-0.0115 ± 0.00071	-0.008 ± 0.02	0.0405 ± 0.0064	-0.0115 ± 0.0064	-0.0015 ± 0.022	-0.014 ± 0.014	-0.03 ± 0.0071	0.007 ± 0.0057	-0.0205 ± 0.012	-0.0195 ± 0.005
BF4T:MMP-3	-0.01 ± 0.045	-0.0285 ± 0.057	-0.0095 ± 0.037	-0.004 ± 0.0014	0.0205 ± 0.019	0.036 ± 0.0071	-0.001 ± 0.024	0.0105 ± 0.0035	0.043 ± 0.016	0.021 ± 0.042	0.0195 ± 0.035	0.0605 ± 0.053	-0.0515 ± 0.0035	-0.0285 ± 0.015	-0.0135 ± 0.015	-0.021 ± 0.03	-0.0185 ± 0.0035	0.021 ± 0.016	0.0005 ± 0.005
BF4T:tPA	0.0015 ± 0.021	0.003 ± 0.013	0.0045 ± 0.0078	-0.0045 ± 0.013	0.0025 ± 0.0021	-0.0075 ± 0.025	0.0015 ± 0.037	0.0035 ± 0.018	0.019 ± 0.04	-0.004 ± 0.023	-0.0125 ± 0.013	0.022 ± 0.0057	0.006 ± 0.034	-0.0195 ± 0.022	-0.019 ± 0.0085	-0.023 ± 0.0014	-0.0145 ± 0.013	-0.0015 ± 0.018	0.0125 ± 0.015
BE3C:EGFR	0.0085 ± 0.012	-0.0025 ± 0.021	-0.0095 ± 0.0064	0.016 ± 0.0071	0.01 ± 0.025	0.02 ± 0.011	-0.0075 ± 0.05	0.0065 ± 0.018	0.0335 ± 0.04	-0.005	-0.0085 ± 0.0078	0.001 ± 0.0028	0.025 ± 0.013	0.0035 ± 0.03	-0.029 ± 0.021	0.008 ± 0.0042	-0.022 ± 0.0071	-0.0015 ± 0.022	-0.006
BF4T:CD106/VCAM-1	-0.0125 ± 0.015	-0.006 ± 0.027	0.0245 ± 0.053	-0.0105 ± 0.0021	-0.04 ± 0.0014	-0.049 ± 0.011	-0.025 ± 0.031	-0.029 ± 0.011	0.022 ± 0.014	-0.022 ± 0.024	-0.019 ± 0.0014	-0.0155 ± 0.033	-0.003 ± 0.051	-0.0605 ± 0.0078	-0.001 ± 0.02	0.002 ± 0.0028	0.0015 ± 0.0064	0.0015 ± 0.016	0.0065 ± 0.018
